Experimental data taken from BigSolDB 2.1.

Nc1cccc(N)n1
Details	solubility (mole fraction)
in ethanol, 266.95 K	0.0751
in ethanol, 270.35 K	0.0853
in ethanol, 274.15 K	0.0992
in ethanol, 277.45 K	0.108
in ethanol, 281.15 K	0.123
in ethanol, 286.35 K	0.148
in ethanol, 290.15 K	0.166
in ethanol, 293.55 K	0.182
in ethanol, 297.15 K	0.204
in ethanol, 301.15 K	0.226
in ethanol, 304.55 K	0.236
in ethanol, 307.95 K	0.266
in ethanol, 312.05 K	0.282
in ethanol, 316.25 K	0.319
in ethanol, 321.25 K	0.342
in ethylbenzene, 273.25 K	0.00022
in ethylbenzene, 277.15 K	0.00026
in ethylbenzene, 282.25 K	0.00033
in ethylbenzene, 285.55 K	0.00035
in ethylbenzene, 289.45 K	0.00046
in ethylbenzene, 293.05 K	0.00049
in ethylbenzene, 298.65 K	0.00066
in ethylbenzene, 302.25 K	0.00069
in ethylbenzene, 305.35 K	0.00086
in ethylbenzene, 309.55 K	0.0009
in ethylbenzene, 313.15 K	0.00113
in ethylbenzene, 317.35 K	0.0012
in ethylbenzene, 321.25 K	0.0015
in ethylbenzene, 326.15 K	0.00164
in ethylbenzene, 329.45 K	0.00197
in ethylbenzene, 333.35 K	0.00212
in ethylbenzene, 336.95 K	0.00252
in ethylbenzene, 341.05 K	0.00288
in ethylbenzene, 346.25 K	0.0033
in ethylbenzene, 349.55 K	0.00385
in ethylbenzene, 353.05 K	0.0043
in ethylbenzene, 357.05 K	0.00474
in ethylbenzene, 361.15 K	0.00577
in isopropanol, 266.25 K	0.0222
in isopropanol, 269.95 K	0.028
in isopropanol, 274.15 K	0.0302
in isopropanol, 277.55 K	0.0379
in isopropanol, 281.15 K	0.0401
in isopropanol, 285.65 K	0.0512
in isopropanol, 290.15 K	0.0565
in isopropanol, 293.65 K	0.068
in isopropanol, 297.25 K	0.0732
in isopropanol, 301.15 K	0.0887
in isopropanol, 305.15 K	0.0976
in isopropanol, 308.25 K	0.114
in isopropanol, 311.15 K	0.12
in isopropanol, 315.85 K	0.147
in isopropanol, 319.25 K	0.159
in methanol, 266.15 K	0.0598
in methanol, 269.95 K	0.066
in methanol, 274.15 K	0.0779
in methanol, 278.05 K	0.0888
in methanol, 281.15 K	0.0933
in methanol, 285.95 K	0.111
in methanol, 290.15 K	0.125
in methanol, 297.15 K	0.15
in methanol, 301.15 K	0.165
in methanol, 304.55 K	0.178
in methanol, 307.95 K	0.188
in methanol, 311.15 K	0.207
in methanol, 317.85 K	0.233
in o-xylene, 273.35 K	0.00128
in o-xylene, 277.15 K	0.0014
in o-xylene, 282.25 K	0.00185
in o-xylene, 285.55 K	0.00201
in o-xylene, 289.45 K	0.00252
in o-xylene, 293.65 K	0.00283
in o-xylene, 297.55 K	0.00351
in o-xylene, 302.25 K	0.00395
in o-xylene, 305.35 K	0.00469
in o-xylene, 309.55 K	0.00517
in o-xylene, 314.15 K	0.0064
in o-xylene, 317.35 K	0.00695
in o-xylene, 321.25 K	0.00838
in o-xylene, 325.95 K	0.00937
in o-xylene, 329.45 K	0.011
in o-xylene, 333.35 K	0.0121
in o-xylene, 336.95 K	0.0144
in o-xylene, 341.15 K	0.0153
in o-xylene, 346.25 K	0.0194
in o-xylene, 349.55 K	0.0226
in o-xylene, 353.45 K	0.024
in o-xylene, 357.05 K	0.0292
in o-xylene, 361.05 K	0.034
in o-xylene, 361.25 K	0.0367
in toluene, 273.25 K	0.00149
in toluene, 277.15 K	0.00191
in toluene, 281.25 K	0.00214
in toluene, 285.55 K	0.0027
in toluene, 289.45 K	0.00304
in toluene, 293.65 K	0.00375
in toluene, 297.55 K	0.00417
in toluene, 301.45 K	0.0051
in toluene, 305.35 K	0.00558
in toluene, 309.55 K	0.00704
in toluene, 313.45 K	0.00733
in toluene, 317.35 K	0.00919
in toluene, 321.25 K	0.00942
in toluene, 325.55 K	0.0124
in toluene, 329.45 K	0.0127
in toluene, 333.35 K	0.0162
in toluene, 337.25 K	0.0164
in toluene, 341.15 K	0.0207
in toluene, 345.65 K	0.022
in toluene, 349.55 K	0.0277
in toluene, 353.45 K	0.0283
in toluene, 357.35 K	0.0355
